Earlier results, collected in US20070087333A1, “Method to detect antigen-specific cytolytic activity” (Erasmus Universiteit Rotterdam, priority 2004, published 2007).

Key:
TCC-C10 CTL clone = details: NP418-426 epitope variants, 51Cr-release assay, reference [2]; read-out: EC50 value of the peptide variant (functional avidity)
TCC3180 CTL clone = details: NP418-426 epitope variants, 51Cr-release assay, reference [2]; for EC50: read-out: EC50 value of the peptide variant (functional avidity)

Substance: NP02: HLA-B*3501 epitope NP418-426 peptide variant of influenza NP strain A/HK/2/68 (LPFDKPTIM; Derived from influenza virus genes encoding NP strain A/HK/2/68 (NP02))
- EC50 (TCC-C10 CTL clone): > 5000 nM
- EC50 (TCC3180 CTL clone): 26 nM

Substance: NP01: HLA-B*3501 epitope NP418-426 peptide variant of influenza NP strain A/NL/18/94 (LPFEKSTVM; Derived from influenza virus genes encoding NP strain A/NL/18/94 (NP01))
- EC50 (TCC-C10 CTL clone): ~0.8 nM
- EC50 (TCC3180 CTL clone): 0.5 nM

Substance: NP03: HLA-B*3501 epitope NP418-426 peptide variant of influenza NP strain A/PR/8/34 (LPFDRTTIM; Derived from influenza virus genes encoding NP strain A/PR/8/34 (NP03))
- EC50 (TCC-C10 CTL clone): > 10000 nM
- EC50 value of the peptide variant (functional avidity) (TCC3180 CTL clone): l lOO
